Source: patent publication US20180311238A1, “Selective Agonist Of a6 Containing nAChRs” (Saniona A/S, priority 2017, published 2018)

System: reserpine-induced tremors
Assay: Reserpine-induced tremors in rats (tremor monitor power spectra)
Assay type: in vivo, rat
Conditions: for effect on reserpine-induced tremors in pilot studies: rats, L-DOPA with benserazide
From the text: Parkinson's disease is associated with severe dopamine deficiency caused by neurodegeneration of dopaminergic cell bodies residing in Substantia Nigra pars compacta. As alpha6 nAChRs are enriched in the nigrostriatal dopamine pathway, activating this receptor may ameliorate symptoms in nigro-striatal dopamine deficiency models. Reserpine injections to rodents result in depletion of monoamines in the nigro-striatal dopamine pathway, resulting in catalepsy and tremors. Both behaviours can be quantified using dedicated tremor boxes.
Six groups of male Sprague Dawley rats (250-300 grams) were subjected to the following treatment schedules, and effects on power spectra, assessed in automated tremor monitors were evaluated for 30 minutes: • Vehicle+vehicle • Vehicle+reserpine (1 mg/kg) • 9-Methyl-3-pyridin-3-yl-3,9-diaza-bicyclo[3.3.1]nonane (0.1 mg/kg)+reserpine (1 mg/kg) • 9-Methyl-3-pyridin-3-yl-3,9-diaza-bicyclo[3.3.1]nonane (1.0 mg/kg)+reserpine (1 mg/kg) • L-DOPA (100 mg/kg)+reserpine (1 mg/kg) • 9-Methyl-3-pyridin-3-yl-3,9-diaza-bicyclo[3.3.1]nonane (1.0 mg/kg)+L-DOPA (100 mg/kg)+reserpine (1 mg/kg)
Reserpine was pre-treated i.v. 60 minutes prior to test start in a dose volume of 2 ml/kg. 9-Methyl-3-pyridin-3-yl-3,9-diaza-bicyclo[3.3.1]nonane was pre-treated s.c. 45 minutes prior to test start in a dose volume of 1 ml/kg. The dose of 9-methyl-3-pyridin-3-yl-3,9-diaza-bicyclo[3.3.1]nonane was based on 3H-epibatidin displacement studies showing half maximal displacement of specific binding of 3H-epibatidin in doses equaling 0.15 mg/kg in rats. L-DOPA was pre-treated i.p. 30 minutes prior to test start in a dose volume of 5 ml/kg. […] All animals dosed with L-DOPA was also dosed with the peripherally acting decarboxylase inhibitor Benserazide to prevent the peripheral break down of L-DOPA (benserazide: 50 mg/kg, s.c., 30 min. prior to test start in a dose volume of 1 ml/kg).

[1] = reserpine 1 mg/kg i.v., compound 0.1 and 1.0 mg/kg s.c., L-DOPA 100 mg/kg i.p. + benserazide

| Structure (SMILES) | activity per se of the L-DOPA dose in pilot studies (pilot studies, L-DOPA 100 mg/kg i.p.) | effect on reserpine-induced tremors in pilot studies (pilot studies) | effect on reserpine-induced tremors, AUC 20-43 Hz (reserpine 1 mg/kg i.v., L-DOPA 100 mg/kg i.p. + benserazide) | effect on reserpine-induced tremors, AUC 40-63 Hz [1] | reversal of reserpine-induced reduction of low frequency movements (catalepsy), AUC 3-13 Hz [1] |
| --- | --- | --- | --- | --- | --- |
| N[C@@H](Cc1ccc(O)c(O)c1)C(=O)O [L-DOPA] | marginal activity per se | reverse reserpine-induced tremors | without exerting any effects | reduces reserpine-induced tremors | Neither threshold dose of L-DOPA, nor 9-methyl-3-pyridin-3-yl-3,9-diaza-bicyclo[3.3.1]nonane or the combination of the two, was able to reverse this reduction |
| CN1CCc2cccc3c2[C@H]1Cc1ccc(O)c(O)c1-3 [apomorphine] |  | reverse reserpine-induced tremors |  |  |  |
